Where two headings read alike, the source gives them in different places.
Columns and labels:
Assay type in all cases: cell-based
OVCAR-3 = assay: NCI human tumor in vitro primary screen; settings: ovarian cancer
Excerpt: (§1) Only two hundred years ago, many diseases ravaged humankind. Many of these diseases now have been controlled or eradicated. In the development of the means to treat or control these diseases, work with the appropriate common experimental animals was of critical importance. With the various types of cancers, and with the HIV virus, such work is presently ongoing. The research for the treatment of various types of cancer is coordinated in the United States by the National Cancer Institute (NCI). NCI, as a government entity, has been charged with assisting anti-cancer research. To establish whether a substance has anti cancer activity, NCI has established a variety of protocols, one of which involves testing the candidate substance against a cell line panel containing 60 human tumor cell lines. This protocol has been verified and is generally accepted throughout the scientific community. This protocol and the established statistical means of evaluating the results obtained therefrom have been fully described in the literature. See Principles & Practice of Oncology PPO Updates, Volume 3, Number 10, Oct. 1989, by Michael R. Boyd, M.D., Ph.D., for an indepth description of the test protocol. The statistical analysis is explained in "Display and Analysis of Patterns of Differential Activity of Drugs Against Human Tumor Cell Lines: Development of Means Graph and COMPARE Algorithm" Journal of the National Cancer Institute Reports Vol. 81, No. 14, Pg. 1088, Jul. 14, 1989, by K. D. Paull et al. Both of these references are incorporated herein by this reference thereto.
(§2) Biological Testing; Data Display and Analysis; Screening Data Summary. Freshly isolated halistatin 2 was tested in the NCI's human tumor, disease-oriented in vitro primary screen, and data calculations performed. Table 3 is a composite prepared from mean graphs constructed from the averaged GI50 values from quadruplicate screenings of Halistatin 2.

COLO 205 = assay: NCI human tumor in vitro primary screen; settings: colon cancer
Excerpt: as §1, §2

UACC-257 = assay: NCI human tumor in vitro primary screen; settings: melanoma
Excerpt: as §1, §2

SN12C = assay: NCI human tumor in vitro primary screen; settings: renal cancer
Excerpt: as §1, §2

SK-OV-3 = assay: NCI human tumor in vitro primary screen; settings: ovarian cancer
Excerpt: as §1, §2

IGROV-1 = assay: NCI human tumor in vitro primary screen
Excerpt: as §1, §2

HCC-2998 = assay: NCI human tumor in vitro primary screen; settings: colon cancer
Excerpt: as §1, §2

SR = assay: NCI human tumor in vitro primary screen; settings: leukemia, read-out: averaged negative log10 GI50 (converted)
Excerpt: as §1, §2

NCI-H23 = assay: NCI human tumor in vitro primary screen
Excerpt: as §1, §2

RPMI-8226 = assay: NCI human tumor in vitro primary screen; settings: leukemia
Excerpt: as §1, §2

TK-10 = assay: NCI human tumor in vitro primary screen; settings: renal cancer
Excerpt: as §1, §2

XF 498 = assay: NCI human tumor in vitro primary screen
Excerpt: as §1, §2

HOP-92 = assay: NCI human tumor in vitro primary screen; settings: non-small cell lung cancer
Excerpt: as §1, §2

NCI-H460 = assay: NCI human tumor in vitro primary screen
Excerpt: as §1, §2

DLD-1 = assay: NCI human tumor in vitro primary screen; settings: colon cancer
Excerpt: as §1, §2

KM12 = assay: NCI human tumor in vitro primary screen; settings: colon cancer
Excerpt: as §1, §2

MOLT-4 = assay: NCI human tumor in vitro primary screen; settings: leukemia
Excerpt: as §1, §2

HL-60TB = assay: NCI human tumor in vitro primary screen; settings: leukemia
Excerpt: as §1, §2

NCI-H226 = assay: NCI human tumor in vitro primary screen
Excerpt: as §1, §2

M14 = assay: NCI human tumor in vitro primary screen; settings: melanoma
Excerpt: as §1, §2

A498 = assay: NCI human tumor in vitro primary screen; settings: renal cancer
Excerpt: as §1, §2

U251 = assay: NCI human tumor in vitro primary screen; settings: U-251, CNS cancer
Excerpt: as §1, §2

HCT-116 = assay: NCI human tumor in vitro primary screen; settings: colon cancer
Excerpt: as §1, §2

human tumor cell lines = assay: cells
[1] = read-out: Log10 GI50 (converted)
[2] = read-out: Log10 TGI (converted)
[3] = read-out: averaged negative log10 GI50 (converted)
[4] = non-small cell lung cancer, read-out: averaged negative log10 GI50 (converted)

SMILES: C=C1CC2CCC34CC5OC6C(O3)C3OC(CCC3OC6(O)C5O4)CC(=O)OC3C(CC4OC(CCC1O2)CC(C)C4=C)OC1CC2OC4(CC2OC1C3C)CC1OC2(CC(C)C3OC5CC(C(O)CO)OC5CC3O2)CC(C)C1O4 (stereo not shown) [halistatin 2]
- GI50 (OVCAR-3; [1]): 0.282 nM
- IC (TGI) (OVCAR-3; [2]): 1.58 nM
- GI50 (OVCAR-3; [3]): 0.282 nM
- GI50 (COLO 205; [1]): 0.219 nM
- IC (TGI) (COLO 205; [2]): 1.51 nM
- GI50 (COLO 205; [3]): 0.219 nM
- GI50 (UACC-257; [1]): 2.29 nM
- IC (TGI) (UACC-257; [2]): 10 nM
- GI50 (UACC-257; [3]): 2.29 nM
- GI50 (SN12C; [1]): 1.82 nM
- IC (TGI) (SN12C; [2]): 10 nM
- GI50 (SN12C; [3]): 1.82 nM
- GI50 (SK-OV-3; [1]): 0.676 nM
- IC (TGI) (SK-OV-3; [2]): 10 nM
- GI50 (SK-OV-3; [3]): 0.676 nM
- GI50 (IGROV-1; IGROV1, ovarian cancer, read-out: Log10 GI50 (converted)): 0.891 nM
- IC (TGI) (IGROV-1; IGROV1, ovarian cancer, read-out: Log10 TGI (converted)): 10 nM
- GI50 (IGROV-1; ovarian cancer, read-out: averaged negative log10 GI50 (converted)): 0.891 nM
- GI50 (HCC-2998; [1]): 1.29 nM
- IC (TGI) (HCC-2998; [2]): 5.25 nM
- GI50 (HCC-2998; [3]): 1.29 nM
- GI50 (SR): 0.214 nM
- GI50 (NCI-H23; NCl-H23, non-small cell lung cancer, read-out: Log10 GI50 (converted)): 0.661 nM
- IC (TGI) (NCI-H23; NCl-H23, non-small cell lung cancer, read-out: Log10 TGI (converted)): 6.76 nM
- GI50 (NCI-H23; [4]): 0.661 nM
- GI50 (RPMI-8226; [1]): 0.407 nM
- IC (TGI) (RPMI-8226; [2]): 10 nM
- GI50 (RPMI-8226; [3]): 0.407 nM
- GI50 (TK-10; [1]): 5.5 nM
- IC (TGI) (TK-10; [2]): 10 nM
- GI50 (TK-10; [3]): 5.5 nM
- GI50 (XF 498; XF498, CNS cancer, read-out: Log10 GI50 (converted)): 0.427 nM
- IC (TGI) (XF 498; XF498, CNS cancer, read-out: Log10 TGI (converted)): 4.47 nM
- GI50 (XF 498; XF498, XF 498, CNS cancer, read-out: averaged negative log10 GI50 (converted)): 0.427 nM
- GI50 (HOP-92; [1]): 1.2 nM
- IC (TGI) (HOP-92; [2]): 10 nM
- GI50 (HOP-92; [3]): 1.2 nM
- GI50 (NCI-H460; NCl-H460, non-small cell lung cancer, read-out: Log10 GI50 (converted)): 0.38 nM
- IC (TGI) (NCI-H460; NCl-H460, non-small cell lung cancer, read-out: Log10 TGI (converted)): 6.76 nM
- GI50 (NCI-H460; [4]): 0.38 nM
- GI50 (DLD-1; [1]): 1.2 nM
- IC (TGI) (DLD-1; [2]): 10 nM
- GI50 (DLD-1; [3]): 1.2 nM
- GI50 (KM12; [1]): 0.537 nM
- IC (TGI) (KM12; [2]): 10 nM
- GI50 (KM12; [3]): 0.537 nM
- GI50 (MOLT-4; [1]): 0.407 nM
- IC (TGI) (MOLT-4; [2]): 10 nM
- GI50 (MOLT-4; [3]): 0.407 nM
- GI50 (HL-60TB; HL-60(TB), read-out: Log10 GI50 (converted)): 0.158 nM
- IC (TGI) (HL-60TB; HL-60(TB), read-out: Log10 TGI (converted)): 1 nM
- GI50 (HL-60TB; HL-60TB, read-out: averaged negative log10 GI50 (converted)): 0.158 nM
- GI50 (NCI-H226; NCl-H226, non-small cell lung cancer, read-out: Log10 GI50 (converted)): 0.724 nM
- IC (TGI) (NCI-H226; NCl-H226, non-small cell lung cancer, read-out: Log10 TGI (converted)): 3.72 nM
- GI50 (NCI-H226; [4]): 0.724 nM
- GI50 (M14; [1]): 0.676 nM
- IC (TGI) (M14; [2]): 5.75 nM
- GI50 (M14; [3]): 0.676 nM
- GI50 (A498; [1]): 1.82 nM
- IC (TGI) (A498; [2]): 10 nM
- GI50 (A498; [3]): 1.82 nM
- GI50 (U251; [1]): 0.479 nM
- IC (TGI) (U251; [2]): 9.33 nM
- GI50 (U251; [3]): 0.479 nM
- GI50 (HCT-116; [1]): 0.55 nM
- IC (TGI) (HCT-116; [2]): 10 nM
- GI50 (HCT-116; [3]): 0.55 nM
- potency (human tumor cell lines): especially noteworthy
- screening profile (human tumor cell lines): characteristic of a general mechanistic class of tubulin-interactive antimitotics
- GI50 (human tumor cell lines; Homo sapiens): ~0.7 nM

Reference: patent publication US5352804A, “Isolation and structure of Halistatin 2” (Arizona Board of Regents, a body corporate, acting on …, priority 1993, dated 1994)
